Measured values published in ChEMBL document CHEMBL4406836, “The design of a cell-selective fowlicidin-1-derived peptide with both antimicrobial and anti-inflammatory activities” (Eur J Med Chem, 2019).
Values after ≈ are worked out from the molar mass of the structure shown. Active and inactive are the calls of the source. The calls are words filed in the database; no cut-off is given here.

How the values were obtained:
[1] = tested on: RAW264.7; test: Antiinflammatory activity in mouse RAW264.7 cells assessed as reduction in LPS-induced iNOS gene expression at 4 uM incubated for 3 hrs by qRT-PCR analysis; assay type: functional, cell-based
[2] = tested on: Pseudomonas aeruginosa; assay type: functional; conditions: CCARM 2095, 72 h
[3] = tested on: Pseudomonas aeruginosa; test: Antibacterial activity against multidrug-resistant Pseudomonas aeruginosa CCARM 2095 assessed as reduction in bacterial growth at 4 uM incubated for 72 hrs in presence of chloramphenicol by spectrophotometry; assay type: functional; conditions: CCARM 2095, 72 h
[4] = tested on: Staphylococcus aureus; test: Antibacterial activity against methicillin-resistant Staphylococcus aureus CCARM 3089 assessed as reduction in bacterial growth at 8 uM incubated for 72 hrs in presence of ciprofloxacin by spectrophotometry; assay type: functional; conditions: CCARM 3089, 72 h
[5] = tested on: Staphylococcus aureus; test: Antibacterial activity against methicillin-resistant Staphylococcus aureus CCARM 3089 assessed as reduction in bacterial growth at 8 uM incubated for 72 hrs in presence of oxacillin by spectrophotometry; assay type: functional; conditions: CCARM 3089, 72 h
[6] = tested on: Staphylococcus aureus; test: Fractional inhibitory concentration, ratio of MIC of compound in presence of chloramphenicol to MIC of chloramphenicol for antibacterial activity against methicillin-resistant Staphylococcus aureus CCARM 3089; assay type: functional
[7] = tested on: Staphylococcus aureus; test: Fractional inhibitory concentration, ratio of MIC of compound in presence of oxacillin to MIC of oxacillin for antibacterial activity against methicillin-resistant Staphylococcus aureus CCARM 3089; assay type: functional
[8] = tested on: Pseudomonas aeruginosa; test: Fractional inhibitory concentration index, sum of ratio of MIC of compound in presence of […] and ratio of MIC of compound in presence of ciprofloxacin to MIC of compound for antibacterial activity against multidrug-resistant Pseudomonas aeruginosa CCARM 2095; assay type: functional
[9] = tested on: Staphylococcus aureus; test: Potentiation of chloramphenicol-induced antibacterial activity against methicillin-resistant Staphylococcus aureus CCARM 3089 assessed as reduction in chloramphenicol MIC at 1/16th MIC incubated for 72 hrs by spectrophotometry; assay type: functional
[10] = tested on: Escherichia coli; test: Antibacterial activity against Escherichia coli KCTC 1682 assessed as reduction in bacterial growth incubated for 18 hrs by spectrophotometry based microtiter broth dilution method; assay type: functional; conditions: KCTC 1682, 18 h
[11] = tested on: Bacillus subtilis; test: Antibacterial activity against Bacillus subtilis KCTC 3068 assessed as reduction in bacterial growth incubated for 18 hrs by spectrophotometry based microtiter broth dilution method; assay type: functional; conditions: KCTC 3068, 18 h
[12] = tested on: Staphylococcus epidermidis; test: Antibacterial activity against Staphylococcus epidermidis KCTC 1917 assessed as reduction in bacterial growth incubated for 18 hrs by spectrophotometry based microtiter broth dilution method; assay type: functional; conditions: KCTC 1917, 18 h
[13] = Therapeutic index, ratio of MHC10 for hemolytic activity in sheep RBC assessed as minimal hemolytic concentration causing 10% hemolysis to MIC for antibacterial activity; assay type: toxicity; conditions: sheep red blood cells
[14] = tested on: RAW264.7; test: Cytotoxicity against mouse RAW264.7 cells assessed as reduction in cell viability at upto 16 uM incubated for 48 hrs by MTT assay; assay type: cell-based; conditions: raw264.7, 48 h
[15] = tested on: RAW264.7; test: Antiinflammatory activity in mouse RAW264.7 cells assessed as reduction in LPS-induced TNFalpha release at 8 uM preincubated for 1 hr followed by LPS-challenge and measured after 6 hrs by ELISA relative to control; assay type: functional
[16] = tested on: Staphylococcus aureus; test: Potency index, ratio of MIC of LL-37 to MIC of compound for antibacterial activity against methicillin-resistant Staphylococcus aureus CCARM 3090 assessed as reduction in bacterial growth incubated for 18 hrs by spectrophotometry based microtiter broth dilution method; assay type: functional
[17] = tested on: Staphylococcus aureus; test: Potency index, ratio of MIC of LL-37 to MIC of compound for antibacterial activity against methicillin-resistant Staphylococcus aureus CCARM 3095 assessed as reduction in bacterial growth incubated for 18 hrs by spectrophotometry based microtiter broth dilution method; assay type: functional
[18] = tested on: Enterococcus faecium; test: Potency index, ratio of MIC of LL-37 to MIC of compound for antibacterial activity against vancomycin-resistant Enterococcus faecium ATCC 51559 assessed as reduction in bacterial growth incubated for 18 hrs by spectrophotometry based microtiter broth dilution method; assay type: functional
[19] = tested on: Staphylococcus aureus; test: Potency index, ratio of MIC of melittin to MIC of compound for antibacterial activity against methicillin-resistant Staphylococcus aureus CCARM 3089 assessed as reduction in bacterial growth incubated for 18 hrs by spectrophotometry based microtiter broth dilution method; assay type: functional
[20] = tested on: Enterococcus faecium; test: Potency index, ratio of MIC of melittin to MIC of compound for antibacterial activity against vancomycin-resistant Enterococcus faecium ATCC 51559 assessed as reduction in bacterial growth incubated for 18 hrs by spectrophotometry based microtiter broth dilution method; assay type: functional
[21] = tested on: Escherichia coli; test: Antibacterial activity against Escherichia coli KCTC 1682 assessed as reduction in bacterial growth incubated for 18 hrs in presence of 150 mM NaCl by spectrophotometry based microtiter broth dilution method; assay type: functional; conditions: KCTC 1682, 18 h
[22] = tested on: Escherichia coli; test: Antibacterial activity against Escherichia coli KCTC 1682 assessed as reduction in bacterial growth incubated for 18 hrs in presence of 4.5 mM KCl by spectrophotometry based microtiter broth dilution method; assay type: functional; conditions: KCTC 1682, 18 h
[23] = tested on: Escherichia coli; test: Antibacterial activity against Escherichia coli KCTC 1682 assessed as reduction in bacterial growth incubated for 18 hrs in presence of 6 uM NH4Cl by spectrophotometry based microtiter broth dilution method; assay type: functional; conditions: KCTC 1682, 18 h
[24] = tested on: Escherichia coli; test: Antibacterial activity against Escherichia coli KCTC 1682 assessed as reduction in bacterial growth incubated for 18 hrs in presence of 1 mM MgCl2 by spectrophotometry based microtiter broth dilution method; assay type: functional; conditions: KCTC 1682, 18 h
[25] = tested on: Escherichia coli; test: Antibacterial activity against Escherichia coli KCTC 1682 assessed as reduction in bacterial growth incubated for 18 hrs in presence of 2.5 mM CaCl2 by spectrophotometry based microtiter broth dilution method; assay type: functional; conditions: KCTC 1682, 18 h
[26] = tested on: Escherichia coli; test: Antibacterial activity against Escherichia coli KCTC 1682 assessed as reduction in bacterial growth incubated for 18 hrs in presence of 20 % human serum by spectrophotometry based microtiter broth dilution method; assay type: functional; conditions: KCTC 1682, 18 h
[27] = tested on: Staphylococcus aureus; test: Antibacterial activity against Staphylococcus aureus KCTC 1621 assessed as reduction in bacterial growth incubated for 18 hrs in presence of 150 mM NaCl by spectrophotometry based microtiter broth dilution method; assay type: functional; conditions: KCTC 1621, 18 h
[28] = tested on: Staphylococcus aureus; test: Antibacterial activity against Staphylococcus aureus KCTC 1621 assessed as reduction in bacterial growth incubated for 18 hrs in presence of 4.5 mM KCl by spectrophotometry based microtiter broth dilution method; assay type: functional; conditions: KCTC 1621, 18 h
[29] = tested on: Staphylococcus aureus; test: Antibacterial activity against Staphylococcus aureus KCTC 1621 assessed as reduction in bacterial growth incubated for 18 hrs in presence of 6 uM NH4Cl by spectrophotometry based microtiter broth dilution method; assay type: functional; conditions: KCTC 1621, 18 h
[30] = tested on: Staphylococcus aureus; test: Antibacterial activity against Staphylococcus aureus KCTC 1621 assessed as reduction in bacterial growth incubated for 18 hrs in presence of 1 mM MgCl2 by spectrophotometry based microtiter broth dilution method; assay type: functional; conditions: KCTC 1621, 18 h
[31] = tested on: Staphylococcus aureus; test: Antibacterial activity against Staphylococcus aureus KCTC 1621 assessed as reduction in bacterial growth incubated for 18 hrs in presence of 2.5 mM CaCl2 by spectrophotometry based microtiter broth dilution method; assay type: functional; conditions: KCTC 1621, 18 h
[32] = tested on: Staphylococcus aureus; test: Antibacterial activity against methicillin-resistant Staphylococcus aureus CCARM 3089 assessed as reduction in bacterial growth at 4 uM incubated for 72 hrs in presence of chloramphenicol by spectrophotometry; assay type: functional; conditions: CCARM 3089, 72 h
[33] = tested on: Staphylococcus aureus; test: Antibacterial activity against methicillin-resistant Staphylococcus aureus CCARM 3089 assessed as reduction in bacterial growth at 4 uM incubated for 72 hrs in presence of oxacillin by spectrophotometry; assay type: functional; conditions: CCARM 3089, 72 h

Compound: CC[C@H](C)[C@H](NC(=O)[C@H](CCCCN)NC(=O)[C@H](CCC(=O)O)NC(=O)[C@H](CCCCN)NC(=O)[C@H](CO)NC(=O)[C@H](CCCCN)NC(=O)[C@H](CCCNC(=N)N)NC(=O)[C@H](Cc1ccccc1)NC(=O)[C@H](Cc1ccccc1)NC(=O)[C@H](CC(=O)O)NC(=O)CNC(=O)[C@H](CC(C)C)NC(=O)[C@@H](N)CC(C)C)C(=O)NCC(=O)N[C@@H](CCCCN)C(=O)N[C@@H](CCC(=O)O)C(=O)N[C@@H](Cc1ccccc1)C(=O)N[C@@H](CCCCN)C(=O)N[C@@H](CCCNC(=N)N)C(=O)N[C@H](C(=O)N[C@H](C(=O)N[C@@H](CCC(N)=O)C(=O)N[C@@H](CCCNC(=N)N)C(=O)N[C@H](C(=O)N[C@@H](CCCCN)C(=O)N[C@@H](CC(=O)O)C(=O)N[C@@H](Cc1ccccc1)C(=O)N[C@@H](CC(C)C)C(=O)N[C@@H](CCCNC(=N)N)C(=O)N[C@@H](CC(N)=O)C(=O)N[C@@H](CC(C)C)C(=O)N[C@H](C(=O)N1CCC[C@H]1C(=O)N[C@@H](CCCNC(=N)N)C(=O)N[C@H](C(=O)N[C@@H](CCC(=O)O)C(=O)N[C@@H](CO)C(=O)O)[C@@H](C)O)C(C)C)[C@@H](C)CC)C(C)C)[C@@H](C)CC [CATHELICIDIN]
- inhibition [1]: Active
- MIC [2]: 512 µM (≈ 2300 µg/mL)
- MIC [3]: 2 µM
- MIC [4]: 8 µM
- MIC [5]: 2 µM
- FIC [6]: 0.5
- FIC [7]: 0.25
- fractional inhibitory concentration index (FICI) [8]: 0.75
- fold change (FC) [9]: 2 - 16

Compound: H-LVIRWVRAGYKLYRAIKKK-NH2
- MIC [10]: 4 µM
- MIC [11]: 2 µM
- MIC [12]: 4 µM
- selectivity ratio [13]: 28.4
- Activity [14]: Non-Toxic
- inhibition at 8 µM [15]: 75.2%
- Ratio [16]: 2 - 8
- Ratio [17]: 2 - 8
- Ratio [18]: 2 - 8
- Ratio [19]: 2 - 8
- Ratio [20]: 2 - 8
- MIC [21]: 4 µM
- MIC [22]: 4 µM
- MIC [23]: 4 µM
- MIC [24]: 4 µM
- MIC [25]: 4 µM
- MIC [26]: 8 µM
- MIC [27]: 2 µM
- MIC [28]: 2 µM
- MIC [29]: 2 µM
- MIC [30]: 4 µM
- MIC [31]: 2 µM
- MIC [2]: 128 µM
- MIC [32]: 0.5 µM
- MIC [33]: 1 µM
- FIC [6]: 0.125
- FIC [7]: 0.25
- fractional inhibitory concentration index (FICI) [8]: 0.625
- fold change (FC) [9]: 4 - 32
